Legend:
[1] = molecular target: Tyrosine-protein kinase ABL2 (Homo sapiens) (UniProt P42684); test: Inhibition of human truncated Arg expressed in baculovirus assessed as substrate phosphorylation using fluorescence-labelled peptides as substrate at 70 uM after 90 mins by microfluidic peptide phosphorylation assay
[2] = molecular target: Tyrosine-protein kinase ABL1 (Homo sapiens) (UniProt P00519); test: Inhibition of human full-length ABL expressed in baculovirus assessed as substrate phosphorylation using fluorescence-labelled peptides as substrate at 70 uM after 90 mins by microfluidic peptide phosphorylation assay
Tyrosine-protein kinase ABL1 (Homo sapiens), sequence (P00519 whole entry): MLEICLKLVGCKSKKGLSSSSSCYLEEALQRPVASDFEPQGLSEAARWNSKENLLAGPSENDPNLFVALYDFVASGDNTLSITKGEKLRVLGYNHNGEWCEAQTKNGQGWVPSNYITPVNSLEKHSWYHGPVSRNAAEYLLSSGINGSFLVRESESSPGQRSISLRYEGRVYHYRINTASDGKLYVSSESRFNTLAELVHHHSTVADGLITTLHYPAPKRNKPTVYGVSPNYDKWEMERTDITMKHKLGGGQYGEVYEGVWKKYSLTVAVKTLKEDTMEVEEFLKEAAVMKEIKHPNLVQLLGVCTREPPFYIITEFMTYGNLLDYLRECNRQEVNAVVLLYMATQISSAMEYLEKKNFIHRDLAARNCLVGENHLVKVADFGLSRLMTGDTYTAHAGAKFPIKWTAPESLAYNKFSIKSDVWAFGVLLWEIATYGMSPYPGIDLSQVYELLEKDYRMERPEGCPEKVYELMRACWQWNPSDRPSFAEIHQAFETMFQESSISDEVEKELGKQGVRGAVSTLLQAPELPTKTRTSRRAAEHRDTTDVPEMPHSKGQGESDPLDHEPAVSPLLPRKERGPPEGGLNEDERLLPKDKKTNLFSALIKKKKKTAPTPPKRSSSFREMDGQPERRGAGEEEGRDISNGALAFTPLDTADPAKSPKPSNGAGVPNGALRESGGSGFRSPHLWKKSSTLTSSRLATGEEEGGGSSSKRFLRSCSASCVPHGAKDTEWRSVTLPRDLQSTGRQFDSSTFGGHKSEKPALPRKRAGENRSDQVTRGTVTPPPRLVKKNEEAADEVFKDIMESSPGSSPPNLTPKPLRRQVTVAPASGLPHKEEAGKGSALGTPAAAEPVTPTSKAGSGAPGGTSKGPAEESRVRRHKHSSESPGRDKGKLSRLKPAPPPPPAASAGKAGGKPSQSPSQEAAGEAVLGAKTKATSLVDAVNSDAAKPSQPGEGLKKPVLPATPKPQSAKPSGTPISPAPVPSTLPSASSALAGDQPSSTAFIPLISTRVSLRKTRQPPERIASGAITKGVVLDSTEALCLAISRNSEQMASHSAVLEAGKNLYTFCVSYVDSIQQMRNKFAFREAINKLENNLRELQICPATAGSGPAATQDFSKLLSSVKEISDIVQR

[3] = molecular target: T1, Inhibitor of nuclear factor kappa-B kinase subunit beta (Homo sapiens) (UniProt O14920); test: Inhibition of human full length IKK beta expressed in baculovirus assessed as substrate phosphorylation using fluorescence-labelled peptides as substrate at 0.2 uM after 90 mins by microfluidic peptide phosphorylation assay
T1 sequence (whole entry): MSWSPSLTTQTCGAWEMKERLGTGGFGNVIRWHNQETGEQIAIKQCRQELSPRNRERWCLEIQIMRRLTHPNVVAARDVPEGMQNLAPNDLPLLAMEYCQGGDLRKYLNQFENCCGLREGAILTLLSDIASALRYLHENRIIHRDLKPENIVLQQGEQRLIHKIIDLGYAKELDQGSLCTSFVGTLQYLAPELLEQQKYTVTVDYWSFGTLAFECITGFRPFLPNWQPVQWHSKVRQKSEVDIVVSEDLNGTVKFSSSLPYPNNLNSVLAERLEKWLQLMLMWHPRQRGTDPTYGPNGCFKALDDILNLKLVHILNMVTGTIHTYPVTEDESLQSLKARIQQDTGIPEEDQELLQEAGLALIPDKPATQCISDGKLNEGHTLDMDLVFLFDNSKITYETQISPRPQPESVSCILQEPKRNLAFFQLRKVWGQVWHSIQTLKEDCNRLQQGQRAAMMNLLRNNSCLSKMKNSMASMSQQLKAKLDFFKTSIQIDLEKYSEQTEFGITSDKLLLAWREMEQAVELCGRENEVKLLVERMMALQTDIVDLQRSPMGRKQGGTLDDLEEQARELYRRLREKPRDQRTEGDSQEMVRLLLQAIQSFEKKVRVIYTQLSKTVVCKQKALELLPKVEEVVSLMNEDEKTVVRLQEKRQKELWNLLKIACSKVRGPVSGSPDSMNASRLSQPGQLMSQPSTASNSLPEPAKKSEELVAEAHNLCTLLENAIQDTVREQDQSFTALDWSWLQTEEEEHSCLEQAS

[4] = molecular target: Insulin-like growth factor 1 receptor (Homo sapiens) (UniProt P08069); test: Inhibition of human IGF1R catalytic domain expressed in baculovirus assessed as substrate phosphorylation using fluorescence-labelled peptides as substrate at 420 uM after 90 mins by microfluidic peptide phosphorylation assay
[5] = molecular target: RAF proto-oncogene serine/threonine-protein kinase (Homo sapiens) (UniProt P04049); test: Inhibition of human truncated c-Raf expressed in baculovirus assessed as substrate phosphorylation using fluorescence-labelled peptides as substrate at 95 uM after 90 mins by microfluidic peptide phosphorylation assay
RAF proto-oncogene serine/threonine-protein kinase (Homo sapiens), sequence (P04049 whole entry, the tested form may be a part): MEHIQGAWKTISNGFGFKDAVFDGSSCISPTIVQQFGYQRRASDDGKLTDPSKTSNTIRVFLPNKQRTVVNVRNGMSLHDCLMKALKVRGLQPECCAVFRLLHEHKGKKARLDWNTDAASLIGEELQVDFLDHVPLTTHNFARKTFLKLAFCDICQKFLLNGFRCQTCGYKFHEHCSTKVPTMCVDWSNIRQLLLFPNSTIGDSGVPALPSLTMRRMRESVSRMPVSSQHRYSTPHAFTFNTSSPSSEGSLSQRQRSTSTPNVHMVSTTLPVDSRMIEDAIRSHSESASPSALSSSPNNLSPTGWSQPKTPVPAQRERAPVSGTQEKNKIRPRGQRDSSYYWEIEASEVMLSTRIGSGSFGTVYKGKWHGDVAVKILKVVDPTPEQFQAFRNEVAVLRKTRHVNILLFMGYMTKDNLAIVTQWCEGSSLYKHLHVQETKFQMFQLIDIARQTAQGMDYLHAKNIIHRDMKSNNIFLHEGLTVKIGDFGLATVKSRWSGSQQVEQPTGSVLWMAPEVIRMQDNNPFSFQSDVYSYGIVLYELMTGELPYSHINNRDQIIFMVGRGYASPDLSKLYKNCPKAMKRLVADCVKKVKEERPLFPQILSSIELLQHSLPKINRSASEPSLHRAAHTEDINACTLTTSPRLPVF

[6] = molecular target: Aurora kinase B (Homo sapiens) (UniProt Q96GD4); test: Inhibition of human full length AurB expressed in baculovirus assessed as substrate phosphorylation using fluorescence-labelled peptides as substrate at 9 uM after 90 mins by microfluidic peptide phosphorylation assay
Aurora kinase B (Homo sapiens), sequence (Q96GD4 whole entry): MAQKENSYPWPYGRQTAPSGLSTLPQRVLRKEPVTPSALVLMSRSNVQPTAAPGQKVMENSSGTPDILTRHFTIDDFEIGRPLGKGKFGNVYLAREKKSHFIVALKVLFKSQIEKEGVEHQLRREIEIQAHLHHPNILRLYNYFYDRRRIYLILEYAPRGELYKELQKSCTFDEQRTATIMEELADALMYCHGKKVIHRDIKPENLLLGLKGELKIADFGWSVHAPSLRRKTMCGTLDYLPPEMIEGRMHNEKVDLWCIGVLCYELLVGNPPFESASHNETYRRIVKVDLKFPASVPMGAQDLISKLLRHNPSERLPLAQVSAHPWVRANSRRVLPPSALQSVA

[7] = molecular target: T2, Serine/threonine-protein kinase BRSK1 (Homo sapiens) (UniProt Q8TDC3); test: Inhibition of human full length BRSK1 expressed in baculovirus assessed as substrate phosphorylation using fluorescence-labelled peptides as substrate at 9 uM after 90 mins by microfluidic peptide phosphorylation assay
T2 sequence (whole entry): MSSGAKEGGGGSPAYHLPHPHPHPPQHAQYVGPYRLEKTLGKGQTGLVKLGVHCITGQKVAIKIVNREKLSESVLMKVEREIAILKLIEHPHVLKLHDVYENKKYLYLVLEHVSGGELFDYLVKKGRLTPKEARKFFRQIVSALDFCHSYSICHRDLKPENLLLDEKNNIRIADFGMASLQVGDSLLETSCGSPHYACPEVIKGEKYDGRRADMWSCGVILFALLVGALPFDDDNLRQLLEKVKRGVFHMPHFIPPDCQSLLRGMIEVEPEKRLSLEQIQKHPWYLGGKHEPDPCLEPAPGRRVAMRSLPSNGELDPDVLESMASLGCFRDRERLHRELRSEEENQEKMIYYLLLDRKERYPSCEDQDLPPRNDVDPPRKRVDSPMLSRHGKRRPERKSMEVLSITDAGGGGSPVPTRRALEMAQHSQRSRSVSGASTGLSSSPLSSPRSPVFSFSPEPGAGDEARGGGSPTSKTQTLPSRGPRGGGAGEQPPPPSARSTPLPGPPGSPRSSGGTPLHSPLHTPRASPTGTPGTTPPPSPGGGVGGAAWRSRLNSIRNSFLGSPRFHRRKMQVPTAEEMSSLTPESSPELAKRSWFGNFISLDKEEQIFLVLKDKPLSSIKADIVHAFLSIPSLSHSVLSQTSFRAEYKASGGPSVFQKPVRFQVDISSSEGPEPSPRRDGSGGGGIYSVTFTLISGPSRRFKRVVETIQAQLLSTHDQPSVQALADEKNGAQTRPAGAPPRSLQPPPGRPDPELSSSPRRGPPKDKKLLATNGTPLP

[8] = molecular target: Mitogen-activated protein kinase 3 (Homo sapiens) (UniProt P27361); test: Inhibition of human full length ERK1 expressed in Escherichia coli cell assessed as substrate phosphorylation using fluorescence-labelled peptides as substrate at 9 uM after 90 mins by microfluidic peptide phosphorylation assay
Mitogen-activated protein kinase 3 (Homo sapiens), sequence (P27361 whole entry, the tested form may be a part): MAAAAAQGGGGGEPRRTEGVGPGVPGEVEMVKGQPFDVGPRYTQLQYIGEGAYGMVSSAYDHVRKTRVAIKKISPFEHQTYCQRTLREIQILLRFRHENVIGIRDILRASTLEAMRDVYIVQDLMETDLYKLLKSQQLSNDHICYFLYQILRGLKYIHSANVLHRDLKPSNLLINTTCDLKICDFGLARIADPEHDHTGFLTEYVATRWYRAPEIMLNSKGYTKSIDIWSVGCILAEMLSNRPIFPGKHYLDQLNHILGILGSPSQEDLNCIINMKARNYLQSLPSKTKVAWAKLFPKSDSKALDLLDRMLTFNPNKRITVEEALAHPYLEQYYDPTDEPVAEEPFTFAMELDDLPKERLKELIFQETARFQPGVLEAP

[9] = molecular target: Protein kinase C eta type (Homo sapiens) (UniProt P24723); test: Inhibition of human truncated PKC eta expressed in baculovirus assessed as substrate phosphorylation using fluorescence-labelled peptides as substrate at 1000 uM after 90 mins by microfluidic peptide phosphorylation assay
Protein kinase C eta type (Homo sapiens), sequence (P24723 whole entry, the tested form may be a part): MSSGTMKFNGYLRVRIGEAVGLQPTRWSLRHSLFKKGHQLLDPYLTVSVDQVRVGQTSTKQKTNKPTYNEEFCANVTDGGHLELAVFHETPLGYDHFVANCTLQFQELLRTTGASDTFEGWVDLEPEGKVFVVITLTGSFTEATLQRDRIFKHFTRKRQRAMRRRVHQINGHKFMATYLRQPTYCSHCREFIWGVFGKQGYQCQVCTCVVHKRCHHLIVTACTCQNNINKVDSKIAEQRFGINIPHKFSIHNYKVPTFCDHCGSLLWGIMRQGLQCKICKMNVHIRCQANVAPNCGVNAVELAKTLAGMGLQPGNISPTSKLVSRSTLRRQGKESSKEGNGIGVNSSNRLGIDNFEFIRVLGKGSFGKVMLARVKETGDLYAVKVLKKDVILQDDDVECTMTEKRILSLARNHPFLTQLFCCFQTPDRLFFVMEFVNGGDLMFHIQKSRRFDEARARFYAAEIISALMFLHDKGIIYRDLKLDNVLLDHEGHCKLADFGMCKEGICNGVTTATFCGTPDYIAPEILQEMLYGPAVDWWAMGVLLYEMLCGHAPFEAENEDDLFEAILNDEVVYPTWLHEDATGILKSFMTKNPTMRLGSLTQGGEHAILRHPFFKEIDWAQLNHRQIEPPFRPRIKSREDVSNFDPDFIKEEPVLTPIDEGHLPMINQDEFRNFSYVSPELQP

[10] = molecular target: T3, Serine/threonine-protein kinase Sgk1 (Homo sapiens) (UniProt O00141); test: Inhibition of human truncated SGK1 expressed in baculovirus assessed as substrate phosphorylation using fluorescence-labelled peptides as substrate at 1000 uM after 90 mins by microfluidic peptide phosphorylation assay
T3 sequence (whole entry): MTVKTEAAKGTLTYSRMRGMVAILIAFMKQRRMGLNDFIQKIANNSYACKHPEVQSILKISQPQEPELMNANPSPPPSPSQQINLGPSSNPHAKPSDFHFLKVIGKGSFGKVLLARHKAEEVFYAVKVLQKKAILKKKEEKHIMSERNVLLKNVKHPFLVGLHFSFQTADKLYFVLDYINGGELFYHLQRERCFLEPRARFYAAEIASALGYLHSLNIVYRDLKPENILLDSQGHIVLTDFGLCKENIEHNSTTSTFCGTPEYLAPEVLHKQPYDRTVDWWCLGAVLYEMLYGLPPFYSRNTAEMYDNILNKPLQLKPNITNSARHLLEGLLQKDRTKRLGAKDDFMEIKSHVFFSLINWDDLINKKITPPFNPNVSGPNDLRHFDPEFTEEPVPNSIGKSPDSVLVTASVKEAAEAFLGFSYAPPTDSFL

[11] = molecular target: RAF proto-oncogene serine/threonine-protein kinase (Homo sapiens) (UniProt P04049); test: Inhibition of human truncated c-Raf expressed in baculovirus assessed as substrate phosphorylation using fluorescence-labelled peptides as substrate at […] after 90 mins by microfluidic peptide phosphorylation assay

Tyrosine-protein kinase ABL2 (Homo sapiens), sequence (P42684 whole entry, the tested form may be a part): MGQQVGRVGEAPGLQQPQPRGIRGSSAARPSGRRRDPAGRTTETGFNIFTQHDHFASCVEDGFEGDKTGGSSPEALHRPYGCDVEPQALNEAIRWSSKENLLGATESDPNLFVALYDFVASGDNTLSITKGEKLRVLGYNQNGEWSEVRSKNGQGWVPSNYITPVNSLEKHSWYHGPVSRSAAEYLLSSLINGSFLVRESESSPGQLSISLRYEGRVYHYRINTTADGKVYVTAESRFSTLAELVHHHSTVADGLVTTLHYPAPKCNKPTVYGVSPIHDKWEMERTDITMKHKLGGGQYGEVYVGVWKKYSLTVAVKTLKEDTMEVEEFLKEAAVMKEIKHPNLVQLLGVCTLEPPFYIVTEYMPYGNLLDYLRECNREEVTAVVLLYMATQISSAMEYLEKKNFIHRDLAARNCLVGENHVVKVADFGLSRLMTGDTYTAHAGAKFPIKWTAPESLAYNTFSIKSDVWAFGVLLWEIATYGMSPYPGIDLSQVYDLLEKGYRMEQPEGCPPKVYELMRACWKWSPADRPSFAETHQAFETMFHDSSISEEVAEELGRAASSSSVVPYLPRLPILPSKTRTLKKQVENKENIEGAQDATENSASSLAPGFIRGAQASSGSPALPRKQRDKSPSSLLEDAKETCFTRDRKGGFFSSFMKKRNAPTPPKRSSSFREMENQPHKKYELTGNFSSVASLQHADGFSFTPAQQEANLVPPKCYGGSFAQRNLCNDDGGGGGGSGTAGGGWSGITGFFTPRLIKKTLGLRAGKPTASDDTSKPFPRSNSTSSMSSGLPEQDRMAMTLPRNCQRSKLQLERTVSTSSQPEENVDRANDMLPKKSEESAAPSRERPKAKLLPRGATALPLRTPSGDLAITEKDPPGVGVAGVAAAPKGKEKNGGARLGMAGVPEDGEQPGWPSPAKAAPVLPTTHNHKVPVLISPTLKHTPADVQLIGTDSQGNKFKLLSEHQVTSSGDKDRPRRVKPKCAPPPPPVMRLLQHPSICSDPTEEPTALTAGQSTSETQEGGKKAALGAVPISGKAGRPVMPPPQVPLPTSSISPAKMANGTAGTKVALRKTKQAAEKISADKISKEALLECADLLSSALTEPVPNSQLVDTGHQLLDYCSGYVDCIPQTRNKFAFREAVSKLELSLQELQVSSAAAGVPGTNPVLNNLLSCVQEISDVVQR

Compound `CNCc1ccc(-c2ncnc3[nH]cnc23)cc1` has an inhibition [1] of 33% and an inhibition [2] of 47.5%.

`Clc1ccc(C2(c3ccc(-c4ncnc5[nH]cnc45)cc3)CCNCC2)cc1` showed an inhibition [3] of 81%.

In the case of `c1nc(N2CCOCC2)c2nc[nH]c2n1`, the inhibition [4] is reported as 15%.

For `NCCc1ccc(-c2ncnc3[nH]cnc23)cc1`, the inhibition [5] was 39.5%.

Compound `NCC1CN(c2ncnc3[nH]c4cnccc4c23)CCO1` (stereo unspecified) has an inhibition [6] of 31%, an inhibition [7] of 29.5% and an inhibition [8] of 8.5%.

In the case of `c1cnc2[nH]ccc2c1`, the inhibition [9] is reported as 52% and the inhibition [10] is reported as 94%.

Compound `COC(=O)c1cnc(Nc2cnc(C#N)cn2)cc1NCC1CCNCC1` has an inhibition [11] of 7%.

From ChEMBL document CHEMBL3132769, “Fragment growing to retain or alter the selectivity of anchored kinase hinge-binding fragments” (Medchemcomm, 2014)
